PubChem BioAssay AID624405 (Broad Institute, 2012)
Inconclusive results are not listed.

Each molecule was assayed on C2C12 myotubes + simvastatin, ATP luminescence, 48 h (assay: rescue of simvastatin-induced ATP loss – cell-based, C2C12 myotubes, ATP luminescence, cherry pick, dose response (AID 624405);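 note: myotubes are challenged with simvastatin at 10 µM to lower ATP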).

Row | Compound | AC40 [µM]
1 | COC(=O)[C@@]12CCCCN1[C@H](c1ccc(-c3cccc(Cl)c3)c(OC)c1)[C@@H]1C(=O)N(C)C(=O)[C@@H]12 | 2.72
2 | CCCC(c1nnnn1Cc1ccc(OC)cc1)N1CCN(c2ccccc2)CC1 (stereo not drawn) | 5.18
3 | C[C@@H]1CN([C@@H](C)CO)C(=O)Cc2cc(NC(=O)CCCCCC(=O)Nc3ccccc3N)ccc2O[C@@H]1CN(C)CC1CCCCC1 | 7.13
4 | C[C@H]1CN([C@@H](C)CO)C(=O)Cc2cc(NC(=O)CCCCCC(=O)Nc3ccccc3N)ccc2O[C@H]1CN(C)Cc1ccc(Oc2ccccc2)cc1 | 3.86
5 | O=C(OCc1nc2ccccc2s1)c1cnccn1 | 9.58
6 | CCC(C(=O)NC1CCCC1)N(C(=O)Cn1nnc(-c2ccc(OC)c(OC)c2)n1)c1cccc(O)c1 (stereo not drawn) | 8.39
7 | Cc1[nH]nc2c1C1(C(=O)N(Cc3ccc(Cl)cc3)c3ccccc31)C(C#N)=C(N)O2 (stereo not drawn) | 4.72
8 | Cc1cccc(C(=O)Nc2cc(OCc3cccc(F)c3)c(Cl)cc2Cl)c1 | 15.9
9 | C[C@@H]1CN([C@H](C)CO)C(=O)Cc2cc(NS(C)(=O)=O)ccc2O[C@@H]1CN(C)Cc1ccc(-c2ccccc2)cc1 | 18.4
10 | CCCNC(=O)Cc1c(O)c2ccccc2[nH]c1=O | 18.6
11 | CC(C)(C)c1ccc(OCC(=O)N/N=C/c2cc(Br)ccc2OC(=O)c2ccco2)cc1 | 2.32
12 | O=C1N2CCCc3cccc(c32)C12Nc1ccccc1S2 (stereo not drawn) | 14.5
13 | COc1ccc(N2CCN(C(=O)c3ccc4c(c3)CCN4S(=O)(=O)c3ccccc3)CC2)cc1 | 16.2
14 | Cc1cccc(-n2c(O)c(C=NC3CCS(=O)(=O)C3)c3ccccc3c2=O)c1 (stereo not drawn) | 17.6
15 | O=C(CSCc1cnn(-c2ccccc2)c1-n1cccc1)NCc1cccs1 | 18.9
16 | Cc1ccc(S(=O)(=O)N(C)C[C@@H]2Oc3ccc(NS(=O)(=O)c4ccc(Cl)cc4)cc3C(=O)N([C@H](C)CO)C[C@@H]2C)cc1 | 8.22
17 | C[C@@H]1CN([C@H](C)CO)C(=O)Cc2cc(NC(=O)CCCCCC(=O)Nc3ccccc3N)ccc2O[C@@H]1CN(C)CC1CCCCC1 | 15.4
18 | O=C(c1cccc(Cl)c1)c1nn(-c2ccccc2)c(=O)cc1C(F)(F)F | 4.99
19 | CCN1C(=O)NC2=C(C(=O)c3ccccc32)C1c1ccccc1F (stereo not drawn) | 5.31
20 | CCOC(=O)Cc1csc(NC(=O)CC(C)(C)C)n1 | 2.56
21 | CC(C)Nc1ncnc2c1cnn2Cc1ccc(Cl)cc1 | 0.544
22 | Cc1noc2ncnc(Sc3ccc(Cl)cc3)c12 | 3.11
23 | C[C@@H]1CN([C@@H](C)CO)C(=O)Cc2cc(NC(=O)CCCCCC(=O)Nc3ccccc3N)ccc2O[C@H]1CN(C)Cc1ccc(-c2ccccc2)cc1 | 10.7

Row | Compound | AC40 [µM]
24 | O=C(C#Cc1ccccc1)Nc1cccc(F)c1 | 3.42
25 | COc1ccc(CC2NCC(O)C2OC(C)=O)cc1 (stereo not drawn) | 0.275
26 | CC1CCN(S(=O)(=O)c2ccc(NC(=O)C3CCN(C(=O)c4ccco4)CC3)cc2)CC1 | 6.94
27 | Cc1cc2c3c(c1)C1(SCC(=O)N1c1ccc(F)cc1)C(=O)N3C(C)(C)CC2C (stereo not drawn) | 4.82
28 | Fc1ccc(C2=Nn3c(nnc3-c3n[nH]c4c3CCC4)SC2)cc1 | 1.23
29 | C[C@@H]1CN([C@@H](C)CO)C(=O)c2cc(NC(=O)Nc3cccc4ccccc34)ccc2O[C@H]1CN(C)Cc1ccc(C(=O)Nc2ccccc2N)cc1 | 15.2
30 | N#Cc1nc(-c2ccco2)oc1N1CCCC1 | 0.199
31 | C[C@H](CO)N1C[C@H](C)[C@@H](CN(C)S(=O)(=O)c2ccc(Cl)cc2)Oc2ccc(NC(=O)NC3CCCCC3)cc2CC1=O | 10.3
32 | C=CCOc1ccc(Br)cc1/C=N/O | 17.9
33 | O=C(Nc1cccc(O)c1)c1cc(-c2cccs2)on1 | 5.99
34 | Cc1ccc(S(=O)(=O)N2CCN(C(=O)c3cccs3)CC2)cc1C | 9.44
35 | CCC(=O)/C=C1/Sc2ccccc2N1CC | 7.21
36 | CC(C)(C)NC(=O)CN(C(=O)Cn1nnc(-c2ccccc2F)n1)c1cccc2c1CCCC2 | 19.4
37 | Cc1ccc(C2(c3ccc(C)cc3)NC(=O)N(Cc3c(C)noc3C)C2=O)cc1 | 5.45
38 | C=CCn1c(=O)c2c(nc3n2CC(C)CN3c2cccc(OC)c2)n(C)c1=O (stereo not drawn) | 10.5
39 | COc1ccc(S(=O)(=O)Nc2ccc3c(c2)CC(=O)N([C@@H](C)CO)C[C@@H](C)[C@H](CN(C)Cc2ccc(-c4ccccc4)cc2)O3)cc1 | 11
40 | C[C@@H]1CN([C@@H](C)CO)C(=O)c2cc(NC(=O)Nc3cccc4ccccc34)ccc2O[C@@H]1CN(C)Cc1ccc(C(=O)Nc2ccccc2N)cc1 | 2.85
41 | NS(=O)(=O)OCC(Cc1ccccc1)N1C(=O)c2ccccc2C1=O (stereo not drawn) | 14.6
42 | CCOc1ccc2nc(N3CCCC(C(=O)N4CCN(CC)CC4)C3)sc2c1 (stereo not drawn) | 6.42
43 | COc1ccc(S(=O)(=O)N(C)C[C@H]2Oc3c(NC(=O)Nc4ccc(F)cc4)cccc3C(=O)N([C@@H](C)CO)C[C@H]2C)cc1 | 14.5
44 | Cc1csc(NC(=O)CSc2nc3[nH]c(=O)cc(O)c3s2)n1 | 4.2
45 | O=C(CNc1cccc(F)c1)N1CCc2ccccc2C1 | 3.26
46 | CCOc1ccccc1NC(=O)C1CCCN(S(=O)(=O)c2ccc(OC)c(C)c2)C1 (stereo not drawn) | 8.06

Row | Compound | AC40 [µM]
47 | N#CCCCSc1nnc(CSc2nc3ccccc3s2)n1-c1ccccc1 | 9.75
48 | Cc1noc(C)c1S(=O)(=O)Nc1ccc2c(c1)CC(=O)N([C@H](C)CO)C[C@H](C)[C@@H](CN(C)Cc1ccc(C(F)(F)F)cc1)O2 | 4.59
49 | CN1C(=O)c2ccc(N(C)C)cc2C1=O | 9.68
50 | O=C(NCc1ccco1)c1cc2sccc2n1Cc1ccc(F)cc1 | 16.4
51 | CC1(Cc2ccccc2OC(F)(F)F)C(=O)Nc2ccc(S(=O)(=O)NC3CCCCC3)cc21 (stereo not drawn) | 6.62
52 | C[C@H](CO)N1C[C@H](C)[C@@H](CN(C)Cc2ccc(Cl)c(Cl)c2)Oc2ccc(NS(C)(=O)=O)cc2CC1=O | 9.83
53 | CCOC(=O)n1c(=O)n(Cc2c(Cl)cccc2Cl)c2ccccc21 | 7.14
54 | Cc1noc(C)c1S(=O)(=O)Nc1ccc2c(c1)CC(=O)N([C@H](C)CO)C[C@@H](C)[C@H](CN(C)Cc1ccc(-c3ccccc3)cc1)O2 | 20.3
55 | Cc1nnsc1NC(=O)OCc1ccc(C(F)(F)F)cc1 | 8.84
56 | C[C@H](CO)N1C[C@H](C)[C@H](CN(C)Cc2ccc(C(=O)Nc3ccccc3N)cc2)Oc2ccc(N(C)C)cc2C1=O | 2.53
57 | O=C(CN1CCC(c2nc3ccccc3s2)CC1)NCc1ccccc1 | 19.3
58 | C[C@H]1CN([C@@H](C)CO)C(=O)Cc2cc(NS(=O)(=O)c3ccc(Cl)cc3)ccc2O[C@@H]1CN(C)CC1CCCCC1 | 15.1
59 | CC(=O)c1cc(F)c(N2CCCC2)cc1C | 17.4
60 | O=C(CCCSc1nc(-c2ccco2)cc(C(F)(F)F)n1)NCc1cccs1 | 15.1
61 | Cc1ccc(NS(=O)(=O)c2ccc(-n3cccn3)cc2)cc1C | 16.1
62 | COc1ccc(S(=O)(=O)N(C)C[C@H]2Oc3c(NC(=O)Nc4ccccc4)cccc3C(=O)N([C@H](C)CO)C[C@H]2C)cc1 | 4.87
63 | C[C@H](CO)N1C[C@H](C)[C@@H](CN(C)Cc2ccc(C(F)(F)F)cc2)Oc2ccc(NC(=O)CCCCCC(=O)Nc3ccccc3N)cc2CC1=O | 8.51
64 | COc1ccc(-c2csc(C(C)(O)c3ccccc3)n2)cc1OC (stereo not drawn) | 13.4
65 | COc1ccc(S(=O)(=O)Nc2ccc3c(c2)C(=O)N([C@@H](C)CO)C[C@H](C)[C@H](CN(C)S(=O)(=O)c2ccc(F)cc2)OCCCC[C@@H](C)O3)cc1 | 17.7
66 | COc1ccccc1C(=O)Nc1ccc2c(c1)OCO2 | 4.38
67 | Cc1cccc(S(=O)(=O)N2CCCCN3[C@H](CO)[C@@H](c4ccc(C#C[C@H](C)O)cc4)[C@@H]3C2)c1 | 17.3
68 | COc1cc(OC)cc(-c2nnc(SCC(=O)N3CCCc4ccccc43)o2)c1 | 16.8
